Experimental data from patent EP3521435A1, “A HIGH STRINGENCY SELECTION SYSTEM FOR PROTEIN EXPRESSION IN PROLINE-AUXOTROPHIC CELLS” (Bayer AG, priority 2018, dated 2019).

How the values were obtained:
CHO-K1 cells [1] = assay: Cell viability post-transfection of transfected cell populations under selection conditions; format: cell-based, Chinese hamster
Outline: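 Suspension CHO-K1 nucleofected (1e7 cells, 5 µg linearized DNA) with GFP vectors carrying puromycin marker plus SV40-driven murine P5CS; seeded 2e5 viable cells/ml, selected with 10 µg/ml puromycin or in proline/ornithine-free medium ± added pressure, viability tracked over time. GFP read by flow cytometry (yellow channel, PI-excluded dead cells): MFI and % high fluorescers above set threshold.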

CHO-K1 cells [2] = assay: Batch fermentation in shake flasks of human IgG1 expressing stable cell populations (Poros A-HPLC titer, viable cell density, viability); format: cell-based, Chinese hamster; conditions: for Productivity profile / Batch titer day 7: human IgG1
[3] = MOCK, CD Fusion + 10 µg/ml Puromycin
[4] = MOCK, CD-Fusion w/o Pro + 10 µg/ml Puromycin
[5] = MOCK, CD-Fusion w/o Pro + 0.25 mM Pro + 10 µg/ml Puromycin
[6] = pJF1555, CD-Fusion w/o Pro + 0.25 mM Pro + 10 µg/ml Puromycin
[7] = pJF1576, CD-Fusion + 10 µg/ml Puromycin
[8] = pJF2053, CD-Fusion + 10 µg/ml Puromycin
[9] = Day 2 after inoculation, pJF1576, selected in CD Fusion + 10 µg/ml Puromycin, non-selecting conditions
[10] = Day 2 after inoculation, pJF1576, selected in CD-Fusion w/o Pro + 0.25 mM Pro + 10 µg/ml Puromycin, non-selecting conditions
[11] = Day 3 after inoculation, pJF1576, selected in CD Fusion + 10 µg/ml Puromycin, selective conditions
[12] = Day 4 after inoculation, pJF1576, selected in CD Fusion + 10 µg/ml Puromycin, non-selecting conditions
[13] = Day 4 after inoculation, pJF1576, selected in CD-Fusion w/o Pro + 0.25 mM Pro + 10 µg/ml Puromycin, non-selecting conditions
[14] = Day 5 after inoculation, pJF1576, selected in CD Fusion + 10 µg/ml Puromycin, selective conditions
[15] = Day 7 after inoculation, pJF1576, selected in CD Fusion + 10 µg/ml Puromycin, non-selecting conditions
[16] = Day 7 after inoculation, pJF1576, selected in CD Fusion + 10 µg/ml Puromycin, selective conditions
[17] = Day 7 after inoculation, pJF1576, selected in CD-Fusion w/o Pro + 0.25 mM Pro + 10 µg/ml Puromycin, non-selecting conditions
[18] = Day 9 after inoculation, pJF1576, selected in CD Fusion + 10 µg/ml Puromycin, non-selecting conditions
[19] = Day 9 after inoculation, pJF1576, selected in CD-Fusion w/o Pro + 0.25 mM Pro + 10 µg/ml Puromycin, non-selecting conditions

## COc1ccc(C[C@H](N)C(=O)N[C@H]2[C@@H](O)[C@H](n3cnc4c(N(C)C)ncnc43)O[C@@H]2CO)cc1 [Puromycin]
CHO-K1 cells [1]; [3]
  Viability on day 12 post-transfection: 25%
  Viability on day 13 post-transfection: 9%
  Viability on day 14 post-transfection: 19%
CHO-K1 cells [1]; [4]
  Viability on day 13 post-transfection: 14%
  Viability on day 14 post-transfection: 23%
CHO-K1 cells [1]; [5]
  Viability on day 12 post-transfection: 23%
  Viability on day 13 post-transfection: 13%
  Viability on day 14 post-transfection: 20%
CHO-K1 cells [1]; Table 8, pJF1555, CD-Fusion w/o Pro + 0.25 mM Pro + 10 µg/ml Puromycin
  Viability on day 12 post-transfection: 83%
CHO-K1 cells [1]; Table 12, pJF1555, CD-Fusion + 10 µg/ml Puromycin
  Viability on day 12 post-transfection: 86%
CHO-K1 cells [1]; Table 12, pJF1555, CD-Fusion w/o Pro + 0.25 mM Pro + 10 µg/ml Puromycin
  Viability on day 12 post-transfection: 63%
CHO-K1 cells [1]; pJF1555, CD Fusion + 10 µg/ml Puromycin
  Viability on day 14 post-transfection: 75%
CHO-K1 cells [1]; pJF1555, CD-Fusion + 10 µg/ml Puromycin
  Viability on day 19 post-transfection: 49%
CHO-K1 cells [1]; pJF1555, CD-Fusion w/o Pro + 10 µg/ml Puromycin
  Viability on day 14 post-transfection: 79%
CHO-K1 cells [1]; [6]
  Viability on day 14 post-transfection: 79%
  Viability on day 19 post-transfection: 48%
CHO-K1 cells [1]; pJF1556, CD Fusion + 10 µg/ml Puromycin
  Viability on day 13 post-transfection: 81%
CHO-K1 cells [1]; pJF1556, CD-Fusion w/o Pro + 10 µg/ml Puromycin
  Viability on day 13 post-transfection: 92%
CHO-K1 cells [1]; pJF1556, CD-Fusion w/o Pro + 0.25 mM Pro + 10 µg/ml Puromycin
  Viability on day 13 post-transfection: 90%
CHO-K1 cells [1]; [7]
  Viability on day 12 post-transfection: 78%
  Viability on day 21 post-transfection: 98.4%
CHO-K1 cells [1]; pJF1576, CD-Fusion w/o Pro + 0.25 mM Pro + 10 µg/ml Puromycin
  Viability on day 12 post-transfection: 79%
CHO-K1 cells [1]; pJF1579, CD-Fusion + 10 µg/ml Puromycin
  Viability on day 21 post-transfection: 98.8%
CHO-K1 cells [1]; [8]
  Viability on day 15 post-transfection: 86.6%
  Viability on day 22 post-transfection: 98.6%
CHO-K1 cells [1]; pJF2222, CD-Fusion + 10 µg/ml Puromycin
  Viability on day 22 post-transfection: 98.7%
CHO-K1 cells [2]; Day 0 after inoculation, pJF1576, selected in CD Fusion + 10 µg/ml Puromycin, non-selecting conditions
  Viability profile: 98.7%
CHO-K1 cells [2]; Day 0 after inoculation, pJF1576, selected in CD Fusion + 10 µg/ml Puromycin, selective conditions
  Viability profile: 92.8%
CHO-K1 cells [2]; Day 0 after inoculation, pJF1576, selected in CD-Fusion w/o Pro + 0.25 mM Pro + 10 µg/ml Puromycin, non-selecting conditions
  Viability profile: 99.0%
CHO-K1 cells [2]; [9]
  Productivity profile: 6.9 mg/L
  Viability profile: 99.0%
  Viable cell density profile: 7,7E+05 VCD/ml
CHO-K1 cells [2]; Day 2 after inoculation, pJF1576, selected in CD Fusion + 10 µg/ml Puromycin, selective conditions
  Productivity profile: 10.9 mg/L
CHO-K1 cells [2]; [10]
  Productivity profile: 11.2 mg/L
  Viability profile: 99.1%
  Viable cell density profile: 8,3E+05 VCD/ml
CHO-K1 cells [2]; [11]
  Viability profile: 98.4%
  Viable cell density profile: 1.7E+06 VCD/ml
CHO-K1 cells [2]; [12]
  Productivity profile: 15.1 mg/L
  Viability profile: 99.7%
  Viable cell density profile: 6,2E+06 VCD/ml
CHO-K1 cells [2]; Day 4 after inoculation, pJF1576, selected in CD Fusion + 10 µg/ml Puromycin, selective conditions
  Productivity profile: 27.6 mg/L
CHO-K1 cells [2]; [13]
  Productivity profile: 24.1 mg/L
  Viability profile: 99.8%
  Viable cell density profile: 5,4E+06 VCD/ml
CHO-K1 cells [2]; [14]
  Viability profile: 99.1%
  Viable cell density profile: 7.1E+06 VCD/ml
CHO-K1 cells [2]; [15]
  Productivity profile: 43.3 mg/L
  Viability profile: 98.7%
  Viable cell density profile: 1,2E+07 VCD/ml
CHO-K1 cells [2]; [16]
  Productivity profile: 60.5 mg/L
  Viability profile: 97.7%
  Viable cell density profile: 1.1E+07 VCD/ml
CHO-K1 cells [2]; [17]
  Productivity profile: 60.6 mg/L
  Viability profile: 97.8%
  Viable cell density profile: 1,0E+07 VCD/ml
CHO-K1 cells [2]; [18]
  Productivity profile: 61.5 mg/L
  Viability profile: 43.9%
  Viable cell density profile: 5,8E+06 VCD/ml
CHO-K1 cells [2]; [19]
  Productivity profile: 92.5 mg/L
  Viability profile: 58.1%
  Viable cell density profile: 6,2E+06 VCD/ml
CHO-K1 cells [2]; pJF1576, selected in CD Fusion + 10 µg/ml Puromycin, non-selecting conditions
  Batch titer day 7: 145 mg/L
CHO-K1 cells [2]; pJF1576, selected in CD-Fusion w/o Pro + 10 µg/ml Puromycin, non-selecting conditions
  Batch titer day 7: 198 mg/L
CHO-K1 cells [2]; pJF1576, selected in CD-Fusion w/o Pro + 0.25 mM Pro + 10 µg/ml Puromycin, non-selecting conditions
  Batch titer day 7: 164 mg/L
CHO-K1 cells [2]; pJF1577, selected in CD Fusion + 10 µg/ml Puromycin, non-selecting conditions
  Batch titer day 7: 174 mg/L
CHO-K1 cells [2]; pJF1577, selected in CD-Fusion w/o Pro + 10 µg/ml Puromycin, non-selecting conditions
  Batch titer day 7: 154 mg/L
CHO-K1 cells [2]; pJF1577, selected in CD-Fusion w/o Pro + 0.25 mM Pro + 10 µg/ml Puromycin, non-selecting conditions
  Batch titer day 7: 127 mg/L
